In ChEMBL document CHEMBL1141418 (J Med Chem, 2007):
Positions of bridges follow the written chain, without caps; N, C: chain ends. Non-standard residues stand in square brackets, D forms with d. Residues, ends and D or L forms follow the SMILES beside them. Cha = N[C@@H](CC1CCCCC1)C(=O)O; Orn = NCCC[C@H](N)C(=O)O; Dab = NCC[C@H](N)C(=O)O; Dap = NC[C@H](N)C(=O)O; Mpa = O=C(O)CCS

Columns and labels:
[1] = target: Vasopressin V1a receptor (Rattus norvegicus, UniProt P30560); assay: Displacement of [3H]AVP from vasopressin V1a receptor in rat liver membrane; assay type: cell membranes
[2] = target: Vasopressin V2 receptor (Rattus norvegicus) (UniProt Q00788); assay: Activity at vasopressin V2 receptor in rat kidney membranes assessed as maximal adenylate cyclase activity relative to AVP; assay type: functional, cell membranes; details: Membrane, filed as agonist
[3] = species on record: Rattus norvegicus; assay: Vasopressor activity in rat; assay type: functional
[4] = species on record: Rattus norvegicus; assay: Antidiuretic activity in rat; assay type: functional, Urine
[5] = target: Vasopressin V2 receptor (Rattus norvegicus, UniProt Q00788); assay: Displacement of [3H]AVP from vasopressin V2 receptor in rat kidney membranes; assay type: cell membranes, Membrane
[6] = target: Vasopressin V2 receptor (Rattus norvegicus) (UniProt Q00788); assay: Activity at vasopressin V2 receptor in rat kidney membranes assessed as adenylate cyclase activity; assay type: functional, cell membranes; details: Membrane, filed as agonist
[7] = target: T1, Oxytocin receptor (Homo sapiens) (UniProt P30559); assay: Activity at OT receptor assessed as oxytocic activity in absence of magnesium; assay type: functional; details: filed as agonist
T1 sequence (whole entry): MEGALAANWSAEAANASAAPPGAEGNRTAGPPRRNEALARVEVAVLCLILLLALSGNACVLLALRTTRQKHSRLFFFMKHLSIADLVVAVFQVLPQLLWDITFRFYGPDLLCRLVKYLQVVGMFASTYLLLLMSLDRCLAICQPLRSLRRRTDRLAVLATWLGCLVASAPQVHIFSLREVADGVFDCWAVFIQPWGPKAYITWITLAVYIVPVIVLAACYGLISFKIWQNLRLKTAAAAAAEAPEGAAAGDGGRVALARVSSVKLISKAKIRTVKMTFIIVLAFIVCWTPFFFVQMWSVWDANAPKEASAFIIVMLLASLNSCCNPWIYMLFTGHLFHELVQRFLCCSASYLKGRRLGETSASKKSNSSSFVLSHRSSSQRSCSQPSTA

[8] = target: T2, Oxytocin receptor (Rattus norvegicus, UniProt P70536); assay: Displacement of [3H]AVP from rat OT receptor expressed in CHO cells; assay type: cell-based
T2 sequence (P70536 whole entry): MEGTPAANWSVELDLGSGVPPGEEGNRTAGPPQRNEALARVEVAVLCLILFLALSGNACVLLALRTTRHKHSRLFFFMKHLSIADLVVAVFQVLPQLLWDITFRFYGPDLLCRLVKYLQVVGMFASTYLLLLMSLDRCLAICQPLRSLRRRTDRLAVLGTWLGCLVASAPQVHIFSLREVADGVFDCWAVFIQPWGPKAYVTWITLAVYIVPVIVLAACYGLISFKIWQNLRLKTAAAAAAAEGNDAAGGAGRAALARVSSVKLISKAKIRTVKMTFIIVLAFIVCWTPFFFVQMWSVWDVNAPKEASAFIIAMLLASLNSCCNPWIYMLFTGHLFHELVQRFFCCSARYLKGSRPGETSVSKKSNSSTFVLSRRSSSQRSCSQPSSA

Vasopressin V2 receptor (Rattus norvegicus), sequence (Q00788 whole entry): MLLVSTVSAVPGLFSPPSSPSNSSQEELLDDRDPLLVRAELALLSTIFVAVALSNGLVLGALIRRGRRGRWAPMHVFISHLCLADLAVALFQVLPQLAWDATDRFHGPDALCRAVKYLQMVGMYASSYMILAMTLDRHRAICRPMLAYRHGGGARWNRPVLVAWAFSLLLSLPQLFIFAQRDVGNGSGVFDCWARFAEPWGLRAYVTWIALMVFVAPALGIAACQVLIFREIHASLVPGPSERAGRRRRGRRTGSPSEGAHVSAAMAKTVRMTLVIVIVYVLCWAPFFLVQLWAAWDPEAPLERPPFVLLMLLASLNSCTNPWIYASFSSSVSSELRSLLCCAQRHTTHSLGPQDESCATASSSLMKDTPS
Vasopressin V2 receptor, sequence (Q00788 whole entry): as above
Vasopressin V1a receptor, sequence (P30560 whole entry): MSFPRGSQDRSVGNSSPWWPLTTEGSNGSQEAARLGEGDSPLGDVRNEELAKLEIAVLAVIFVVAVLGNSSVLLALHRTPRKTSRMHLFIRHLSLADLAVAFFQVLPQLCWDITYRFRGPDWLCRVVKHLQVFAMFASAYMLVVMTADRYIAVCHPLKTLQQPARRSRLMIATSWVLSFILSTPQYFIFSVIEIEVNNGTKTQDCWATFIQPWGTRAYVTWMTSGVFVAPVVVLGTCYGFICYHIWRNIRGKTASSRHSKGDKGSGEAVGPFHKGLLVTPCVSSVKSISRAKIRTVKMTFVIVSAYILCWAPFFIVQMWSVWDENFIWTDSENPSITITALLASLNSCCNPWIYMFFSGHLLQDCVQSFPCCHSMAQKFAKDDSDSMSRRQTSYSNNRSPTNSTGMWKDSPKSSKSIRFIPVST

| Ki [1] | Activity [2] | Ki [5] | Kact [6] | Activity [7] | Ki [8] | Compound | Activity [3] | Activity [4] |
| --- | --- | --- | --- | --- | --- | --- | --- | --- |
| 3.8 µM (antagonist) | 76% | 0.1 µM (antagonist) | 196 nM | 0.054 U/mg | 0.064 µM (antagonist) | CC(C)C[C@@H]1NC(=O)[C@H](Cc2ccccc2)NC(=O)[C@H](Cc2ccc(O)cc2)NC(=O)CCSSC[C@@H](C(=O)N2CCC[C@H]2C(=O)N[C@@H](CCCCN)C(=O)NCC(N)=O)NC(=O)[C@H](CC(N)=O)NC1=O ([Mpa]YFLNCPKG-NH2; disulfide 1-6) | 0.9 U/mg | 10.5 U/mg |
| 3.3 µM (antagonist) | 97% | 0.24 µM (antagonist) | 300 nM | 0.046 U/mg | 0.134 µM (antagonist) | CC(C)C[C@@H]1NC(=O)[C@H](Cc2ccccc2)NC(=O)[C@H](Cc2ccc(O)cc2)NC(=O)CCSSC[C@@H](C(=O)N2CCC[C@H]2C(=O)N[C@@H](CN)C(=O)NCC(N)=O)NC(=O)[C@H](CC(N)=O)NC1=O ([Mpa]YFLNCP[Dap]G-NH2; disulfide 1-6) | 0.05 U/mg | 0.7 U/mg |
| 0.13 µM (antagonist) | – | 0.0038 µM (antagonist) | – | 0.15 U/mg | 0.125 µM (antagonist) | N=C(N)NCCC[C@@H]1NC(=O)[C@H](Cc2ccccc2)NC(=O)[C@H](Cc2ccc(O)cc2)NC(=O)CCSSC[C@@H](C(=O)N2CCC[C@H]2C(=O)N[C@@H](CCCCN)C(=O)NCC(N)=O)NC(=O)[C@H](CC(N)=O)NC1=O ([Mpa]YFRNCPKG-NH2; disulfide 1-6) | 83 U/mg | 784 U/mg |
| 0.025 µM (antagonist) | – | 0.0018 µM (antagonist) | – | 0.14 U/mg | 0.195 µM (antagonist) | N=C(N)NCCC[C@@H]1NC(=O)[C@H](Cc2ccccc2)NC(=O)[C@H](Cc2ccc(O)cc2)NC(=O)CCSSC[C@@H](C(=O)N2CCC[C@H]2C(=O)N[C@@H](CCN)C(=O)NCC(N)=O)NC(=O)[C@H](CC(N)=O)NC1=O ([Mpa]YFRNCP[Dab]G-NH2; disulfide 1-6) | 190 U/mg | 431 U/mg |
| 0.067 µM (antagonist) | – | 0.0031 µM (antagonist) | – | 0.06 U/mg | 0.13 µM (antagonist) | N=C(N)NCCC[C@@H]1NC(=O)[C@H](Cc2ccccc2)NC(=O)[C@H](Cc2ccc(O)cc2)NC(=O)CCSSC[C@@H](C(=O)N2CCC[C@H]2C(=O)N[C@@H](CCCN)C(=O)NCC(N)=O)NC(=O)[C@H](CC(N)=O)NC1=O ([Mpa]YFRNCP[Orn]G-NH2; disulfide 1-6) | 173 U/mg | 823 U/mg |
| 2.3 µM (antagonist) | 86% | 0.0127 µM (antagonist) | – | – | – | NC(=O)CNC(=O)[C@H](CCCN=C(N)N)NC(=O)[C@@H]1CCCN1C(=O)[C@@H]1CSSCCC(=O)N[C@@H](Cc2ccc(O)cc2)C(=O)N[C@@H](Cc2ccccc2)C(=O)N[C@@H](CC2CCCCC2)C(=O)N[C@@H](CC(N)=O)C(=O)N1 ([Mpa]YF[Cha]NCPRG-NH2; disulfide 1-6) | 0.067 U/mg | 133.6 U/mg |
| 2.8 µM (antagonist) | – | 0.051 µM (antagonist) | – | 3.1 U/mg | 0.022 µM (antagonist) | NCCCC[C@H](NC(=O)[C@@H]1CCCN1C(=O)[C@@H]1CSSCCC(=O)N[C@@H](Cc2ccc(O)cc2)C(=O)N[C@@H](Cc2ccccc2)C(=O)N[C@@H](CCCN)C(=O)N[C@@H](CC(N)=O)C(=O)N1)C(=O)NCC(N)=O ([Mpa]YF[Orn]NCPKG-NH2; disulfide 1-6) | 0.23 U/mg | 7.8 U/mg |
| 1.3 µM (antagonist) | – | 0.076 µM (antagonist) | – | 2.8 U/mg | 0.037 µM (antagonist) | NCCC[C@@H]1NC(=O)[C@H](Cc2ccccc2)NC(=O)[C@H](Cc2ccc(O)cc2)NC(=O)CCSSC[C@@H](C(=O)N2CCC[C@H]2C(=O)N[C@@H](CCCN)C(=O)NCC(N)=O)NC(=O)[C@H](CC(N)=O)NC1=O ([Mpa]YF[Orn]NCP[Orn]G-NH2; disulfide 1-6) | 1.9 U/mg | 7.9 U/mg |
